{"source": "paper PMC7151106", "about": "(Pharmaceutics, 2020)", "key": {"OAT3": {"test_system": "T1, OAT3", "T1 construct": "host or cells: HEK293", "experiment": "Substrate specificity / uptake in HEK293-OAT3 cells", "format": "in vitro ADME", "conditions": "5 min", "method": "(§1) HEK293-mock cells and HEK293 cells overexpressing OAT1 and OAT3 transporters (HEK293-OAT1 and -OAT3, respectively) were seeded in poly-D-lysine-coated 24-well plates at a density of 4 × 10^5 cells/well and cultured for 24 h in DMEM supplemented with 10% FBS and 5 mM non-essential amino acids at 37 °C in 8% CO2 condition.\n(§2) For each experiment, the growth medium was discarded after 24 h, and the attached cells were washed with pre-warmed HBSS and incubated with pre-warmed HBSS for 20 min at 37 °C. To confirm the functionality of OAT1 and OAT3, we measured the uptake of 0.1 µM [^3H]PAH and 0.1 µM [^3H]ES, representative substrates for OAT1 and OAT3, respectively, into in the HEK293-mock cells and HEK293-OAT1 and -OAT3 cells, respectively, for 5 min in the presence and absence of 20 µM probenecid, a typical inhibitor for both OAT1 and OAT3 [8, 9]. The cells were then washed three times with 500 μL of ice-cold HBSS immediately after placing the plates on ice. Subsequently, cells were lysed with 10% sodium dodecyl sulfate and mixed with Optiphase cocktail solution overnight. The radioactivity of the cell lysate was measured using a liquid scintillation counter (Microbeta 2; Perkin Elmer Inc., Boston, MA, USA).\n(§3) For the concentration dependency in the uptake of DWP16001, the uptake of DWP16001 in a concentration range of 0.5–50 μM dissolved in HBSS was measured for 5 min at 37 °C in the mock cells and HEK293-OAT1 and -OAT3 cells, respectively. After 5 min, the cells were washed three times with 500 μL of ice-cold HBSS immediately after placing the plates on ice.\n(§4) In the concentration-dependent uptake studies, the transporter-mediated uptake of DWP16001 was calculated by the subtraction of the transport rates of DWP16001 into the mock cells from those of the HEK293-OAT1 and -OAT3 cells. Kinetic parameters for the OAT1- and OAT3-mediated transport of DWP16001 were determined using the Michaelis-Menten equation [V = Vmax⋅S/(Km + S)] [10]."}, "SGLT1": {"target": "T2, SGLT1 (Homo sapiens, UniProt P13866)", "T2 construct": "host or cells: CHO", "T2 sequence (P13866 1-664)": "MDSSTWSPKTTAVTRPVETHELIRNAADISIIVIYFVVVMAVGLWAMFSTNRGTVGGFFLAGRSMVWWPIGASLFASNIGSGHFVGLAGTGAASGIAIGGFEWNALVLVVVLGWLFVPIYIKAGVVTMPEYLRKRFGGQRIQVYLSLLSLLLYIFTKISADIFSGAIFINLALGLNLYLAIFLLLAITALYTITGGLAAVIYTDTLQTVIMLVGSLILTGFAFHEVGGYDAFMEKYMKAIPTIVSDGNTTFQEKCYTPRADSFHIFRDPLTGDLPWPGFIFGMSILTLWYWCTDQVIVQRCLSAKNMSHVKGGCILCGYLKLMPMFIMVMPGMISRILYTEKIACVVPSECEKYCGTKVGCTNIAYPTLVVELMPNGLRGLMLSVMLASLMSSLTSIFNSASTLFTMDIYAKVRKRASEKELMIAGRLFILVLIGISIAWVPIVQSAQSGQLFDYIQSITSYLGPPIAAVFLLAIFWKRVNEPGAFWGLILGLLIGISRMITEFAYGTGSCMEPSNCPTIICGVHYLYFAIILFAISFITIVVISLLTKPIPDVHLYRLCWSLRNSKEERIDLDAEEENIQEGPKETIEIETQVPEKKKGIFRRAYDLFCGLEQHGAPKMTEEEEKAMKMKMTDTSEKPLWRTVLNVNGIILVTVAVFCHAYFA", "experiment": "Inhibition of [14C]AMG uptake in CHO-SGLT1 cells", "format": "cell-based", "conditions": "10 μM [14C]AMG, 2 h", "method": "CHO cells overexpressing SGLT1 and SGLT2 cells (CHO-SGLT1 and -SGLT2) and CHO-mock cells were characterized as previously described. Cells were maintained in RPMI1640 medium supplemented with 10% fetal bovine serum and 200 µg/mL G418 at 37 °C in 5% CO2 conditions. CHO-SGLT1 and -SGLT2 cells were seeded at a density of 1 × 10^5 cells/well in 96-well plates. After 24 h, the growth medium was discarded from the cells, and the cells were washed with pre-warmed Na^+-free buffer (10 mM HEPES, 5 mM Tris, 140 mM choline chloride, 2 mM KCl, 1 mM CaCl2, 1 mM MgCl2, pH7.4) and incubated for 1 h in Na^+-free buffer. After replacing Na^+-free buffer with Na^+ gradient buffer (10 mM HEPES, 5 mM Tris, 140 mM NaCl, 2 mM KCl, 1 mM CaCl2, 1 mM MgCl2, pH7.4) containing 10 µM [^14C]AMG, the uptake of [^14C]AMG into the CHO-mock cells and CHO-SGLT1 and -SLGT2 cells was measured for 0.5, 1, 1.5, 2, and 3 h. After a predetermined incubation time, cells were washed three times with 200 µL of ice-cold Na^+-free buffer immediately after placing the plates on ice. Then, the cells were lysed with 10% SDS, and the cell lysates were mixed with Optiphase cocktail solution. Thereafter, the radioactivity of the cell lysates was measured using a liquid scintillation counter.\nAfter 2 h, cells were washed three times with 200 µL of ice-cold Na^+-free buffer and the cells were lysed with 10% SDS (40 µL), followed by adding Optiphase cocktail solution (200 µL). The radioactivity of the cell lysates was measured using a liquid scintillation counter. The SGLT1 or SGLT2-mediated uptake of [^14C]AMG was calculated by the subtraction of the uptake rates of [^14C]AMG into the mock cells from those of the CHO-SGLT1 and -SLGT2 cells. In the inhibition studies, the percentages of the transport rate of AMG with or without SGLT2 inhibitors were calculated and the data were fitted to an inhibitory effect model. The IC50 (the concentration of the inhibitor to show half-maximal inhibition) values were calculated using Sigma Plot ver.10.0 (Systat Software, Inc.; San Jose, CA, USA)."}, "OAT1": {"test_system": "T3, OAT1", "T3 construct": "host or cells: HEK293", "experiment": "Substrate specificity / uptake in HEK293-OAT1 cells", "format": "in vitro ADME", "conditions": "5 min", "method": "as §1, §2, §3, §4"}, "SGLT2 [1]": {"target": "T4, SGLT2 (Homo sapiens, UniProt P31639)", "T4 construct": "host or cells: CHO", "T4 sequence (P31639 1-672)": "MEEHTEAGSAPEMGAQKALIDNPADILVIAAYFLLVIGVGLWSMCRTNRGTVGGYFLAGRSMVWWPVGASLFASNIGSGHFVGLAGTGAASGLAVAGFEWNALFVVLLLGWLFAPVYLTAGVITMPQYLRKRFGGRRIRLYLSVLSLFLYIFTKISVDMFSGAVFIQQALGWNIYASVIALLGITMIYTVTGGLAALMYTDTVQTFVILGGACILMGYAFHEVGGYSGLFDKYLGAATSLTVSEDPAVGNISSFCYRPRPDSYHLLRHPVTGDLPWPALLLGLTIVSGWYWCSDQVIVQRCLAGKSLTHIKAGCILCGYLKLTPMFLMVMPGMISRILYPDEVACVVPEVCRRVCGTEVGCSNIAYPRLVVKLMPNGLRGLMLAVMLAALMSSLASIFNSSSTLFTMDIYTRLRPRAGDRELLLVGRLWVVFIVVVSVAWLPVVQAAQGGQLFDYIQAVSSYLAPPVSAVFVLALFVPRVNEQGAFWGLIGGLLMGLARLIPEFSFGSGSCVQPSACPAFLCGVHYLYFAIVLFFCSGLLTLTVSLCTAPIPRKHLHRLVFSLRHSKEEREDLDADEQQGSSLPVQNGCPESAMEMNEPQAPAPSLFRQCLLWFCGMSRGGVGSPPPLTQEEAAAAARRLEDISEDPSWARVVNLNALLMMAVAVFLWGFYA", "experiment": "Time dependency of SGLT2 inhibition (preincubation) in CHO-SGLT2 cells", "format": "cell-based", "conditions": "pretreatment 0, 1, 2 h", "method": "After 2 h of incubation, the radioactivity of the cell lysate was measured following the same sample preparation method described above."}, "SGLT2 [2]": {"target": "T4, SGLT2", "experiment": "Mode of inhibition on SGLT2 (Dixon plots) in CHO-SGLT2 cells", "format": "cell-based", "conditions": "1, 2.5, 5, 50 μM [14C]AMG", "method": "The radioactivity of the cell lysate was measured following the same sample preparation method described above."}, "SGLT2 [3]": {"target": "T4, SGLT2", "experiment": "Recovery of SGLT2 activity after washout following 24 h exposure in CHO-SGLT2 cells", "format": "cell-based", "conditions": "0.2–200 nM", "method": "After 24 h, the RPMI1640 medium was replaced with pre-warmed fresh RPMI1640 medium and incubated for 1, 2, 3, 5, and 6 h, and proceeded another pre-incubation with Na^+-free buffer for 1 h. Then, after replacing Na^+-free buffer with Na^+ gradient buffer containing 10 µM [^14C]AMG, the uptake of [^14C]AMG into the CHO-SGLT2 cells was measured for 2 h. After 2 h of incubation, the radioactivity of the cell lysate was measured following the same sample preparation method described above."}, "[4]": {"conditions": "mouse, in vivo, po, 1 mg/kg", "protocol": "(§5) An aliquot (30 µL) of each plasma sample was stored at −80 °C until the analysis. […] An aliquot (50 µL) of each kidney homogenate sample was stored at −80 °C until the analysis.\n(§6) For the analysis of SGLT2 inhibitors, aliquots of plasma (30 µL) and kidney homogenate (50 µL) were added to 100 μL of aqueous solution of D4-DWP16001 (IS, 20 ng/mL), and vigorously mixed with 500 μL methyl tert-butyl ether (MTBE) for 15 min. After centrifugation at 16,000 g for 5 min, samples were kept for 1 h at −80 °C to make an aqueous layer freeze. An organic upper layer was transferred to a clean tube and evaporated to dryness under a gentle stream of nitrogen. Then, the dried extract was reconstituted in 150 µL of mobile phase, and a 3 µL aliquot of the reconstituent was injected into a liquid chromatography–tandem mass spectrometry (LC–MS/MS) system.\n(§7) Pharmacokinetic parameters, such as the area under plasma concentration-time curve from zero to infinity (AUC), were calculated from plasma concentration vs time curves using non-compartment analysis with WinNonlin (version 5.1; Pharsights, Cary, NC, USA). The AUC ratios (i.e., ratios of kidney AUC to plasma AUC) were calculated by dividing the AUC of the three SGLT2 inhibitors in the kidney by the plasma AUC values of the three SGLT2 inhibitors."}, "[5]": {"parameters": "method as in PMID 27430987", "conditions": "cited from earlier work"}, "in vivo": {"experiment": "in vivo", "conditions": "ICR, mouse, po, 1 mg/kg", "protocol": "as §5, §6, §7"}}}
{"smiles": "C[C@]12CC[C@@H]3c4ccc(OS(=O)(=O)O)cc4CC[C@H]3[C@@H]1CCC2=O", "note": "[ES, Estrone-3-sulfate]", "values": [{"measurement": "Increase in probe substrate uptake in HEK293-OAT3 vs HEK293-mock cells", "setting": "OAT3; 0.1 μM [3H]ES", "result": 16.4, "unit": "fold"}]}
{"smiles": "CO[C@H]1O[C@H](CO)[C@@H](O)[C@H](O)[C@H]1O", "note": "[AMG, methyl a-D-glucopyranoside]", "values": [{"measurement": "AMG uptake into CHO-SGLT1 cells relative to CHO-mock cells", "setting": "SGLT1", "result": 42, "unit": "fold"}]}
{"smiles": "CCOc1ccc(Cc2cc([C@@H]3O[C@H](CO)[C@@H](O)[C@H](O)[C@H]3O)ccc2Cl)cc1", "note": "[Dapagliflozin, dapagliflozin]", "values": [{"measurement": "Substrate for OAT1", "setting": "OAT1; 2 μM, HEK293-OAT1 vs mock, ± 20 μM probenecid", "result": "not substrates"}, {"measurement": "Substrate for OAT3", "setting": "OAT3; 2 μM, HEK293-OAT3 vs mock, ± 20 μM probenecid", "result": "not substrates"}, {"measurement": "Time dependency of SGLT2 inhibition", "setting": "SGLT2 [1]", "result": "time-independent"}, {"measurement": "Mode of inhibition on SGLT2", "setting": "SGLT2 [2]", "result": "reversible and competitive"}, {"measurement": "Time after drug removal to recovery of SGLT2 activity to the control level", "setting": "SGLT2 [3]", "result": 4, "unit": "h"}, {"measurement": "AUC72h", "setting": "[4]", "result": "26.30 ± 3.34", "unit": "μg∙h/g tissue"}, {"measurement": "Duration of increased urinary glucose excretion post dose", "setting": "[5]", "result": "≥ 18", "unit": "h"}, {"measurement": "AUC(0-inf)", "setting": "in vivo", "result": "550 ± 144000", "unit": "ng·h/mL"}, {"measurement": "AUC(0-t)", "setting": "in vivo", "result": "480 ± 180", "unit": "ng·h/mL"}, {"measurement": "Cmax", "setting": "in vivo", "result": "275 ± 144", "unit": "ng/mL"}, {"measurement": "Kp", "setting": "in vivo", "result": "64.6 ± 31.8"}, {"measurement": "logP", "setting": "physchem", "result": 2.27}]}
{"smiles": "Nc1ccc(C(=O)NCC(=O)O)cc1", "note": "[PAH, Para-aminohipuric acid]", "values": [{"measurement": "Increase in probe substrate uptake in HEK293-OAT1 vs HEK293-mock cells", "setting": "OAT1; 0.1 μM [3H]PAH", "result": 14.7, "unit": "fold"}]}
